Assay results: article PMC3242765, “Inhibitors of Alphavirus Entry and Replication Identified with a Stable Chikungunya Replicon Cell Line and Virus-Based Assays” (PLoS ONE, 2011)
Where “and” joins values, the source holds several entries; their conditions need not be identical. Equal entries are not always repeated. Structures can show the parent of a compound that is named as a salt. Where two headings read alike, the source gives them in different places.

What was measured:
SFV-Rluc [1] = experiment: microbe, parasite or virus in culture; conditions: Semliki Forest virus, BHK, 14 h, read-out: SFV IC50
SFV-Rluc [2] = conditions: for IC50: read-out: SFV IC50
BHK cells = experiment: Cell viability ATP assay, BHK cells; format: cell-based, hamster; conditions: read-out: Cell viability IC50
CHIKV replicon = experiment: microbe, parasite or virus in culture; format: cell-based, Chikungunya virus (CHIKV)
SINV = experiment: CPE reduction assay, SINV (WST-1); format: cell-based, Sindbis virus (SINV); conditions: read-out: SINV IC50 (CPE reduction)
SFV [3] = experiment: CPE reduction assay, SFV (WST-1); format: cell-based, Semliki Forest virus (SFV); conditions: read-out: SFV IC50 (CPE reduction)
SFV [4] = experiment: Viral yield analysis using a plaque assay; format: cell-based, Semliki Forest virus (SFV); conditions: BHK cells, MOI 0.01, 50 µM compound, 16 h; untreated control 1.4×10^9 PFU/ml
CHIKV-Rluc = experiment: microbe, parasite or virus in culture; format: cell-based, Chikungunya virus (CHIKV); conditions: read-out: CHIKV-Rluc IC50
[5] = Mesocricetus auratus, BHK, 48 h
[6] = ATP assay, 48 h exposure of BHK cells
[7] = Semliki Forest virus, BHK, 22 h

Compound	SFV replication % left (surviving fraction, remaining percentage of SFV replication) (SFV-Rluc [2])	CHIKV replicon % left (CHIKV replicon)	also measured
CC(=O)c1ccc(O)cc1 [4-Hydroxyacetophenone]	29.4%	94.5%	IC50 (SFV-Rluc [1]): 21.1 µM; SI (selectivity index) (SFV-Rluc [2]): 7.8; IC50 (BHK cells; [5]): 164 µM
CCN(CC)c1ccc2cc(C(=O)c3cccs3)c(=O)oc2c1 [7-Diethylamino-3-thenoylcoumarin]	15.6%	36.9%	IC50 (SFV-Rluc [2]): 5.1 µM; IC50 (BHK cells; [6]): 39.1 µM
C#C[C@]1(O)CC[C@H]2[C@@H]3CCc4cc(O)ccc4[C@H]3CC[C@@]21C [17-Ethinylestradiol]			IC50 (SFV-Rluc [1]): 9.5 µM; IC50 (SINV; Sindbis virus, BHK, 24 h): 56.8 µM; SI (selectivity index) (SFV-Rluc [2]): >21.1; IC50 (BHK cells; [5]): > 200 µM; IC50 (SFV [3]; [7]): 63 µM; SFV yield (SFV [4]): 9.0×10^8 PFU/ml
O=c1cc(-c2ccccc2)oc2c1ccc1ccccc12 [Alphanaphtoflavone]			IC50 (SFV-Rluc [2]): 24.1 µM; IC50 (BHK cells; [6]): > 200 µM
COc1c2ccoc2cc2oc(=O)ccc12 [Bergapten]			IC50 (SFV-Rluc [1]): 8.1 µM; IC50 (SINV; Sindbis virus, BHK, 24 h): 16.2 µM; SI (selectivity index) (SFV-Rluc [2]): >24.6; IC50 (BHK cells; [5]): > 200 µM; IC50 (SFV [3]; [7]): 9.2 µM; SFV yield (SFV [4]): 1.2×10^8 PFU/ml
CCN(CC)c1ccc2cc(-c3nc4ccccc4n3C)c(=O)oc2c1 [Coumarin 30]	12.3%	44.1%	IC50 (CHIKV-Rluc): 6.4 µM; IC50 (SINV; BHK cells, MOI 0.01, 24 h post-infection, WST-1, 200 µM to 0.1 µM): 11.8 µM; IC50 (SFV-Rluc [2]): 0.4 µM; IC50 (BHK cells; [6]): 92.4 µM; IC50 (SFV [3]; BHK cells, MOI 0.01, 22 h post-infection, WST-1, 200 µM to 0.1 µM): 5.5 µM; SFV yield (SFV [4]): 5.0×10^8 PFU/ml
CN(C)CCC=C1c2ccccc2COc2ccccc21 [Doxepin]			SFV yield (SFV [4]): 3.6×10^8 PFU/ml
CC1=CC(=O)c2ccccc2C1=O [Menadione]			IC50 (SFV-Rluc [1]): 7.8 µM; SI (selectivity index) (SFV-Rluc [2]): 2.8; IC50 (BHK cells; [5]): 21.9 µM
N/C(CC(O)COc1cccc2ccccc12)=N/O (centres unmarked) [Nadoxolol]	20.8%	69.2%	IC50 (SFV-Rluc [1]): 16.4 µM; IC50 (SINV; Sindbis virus, BHK, 24 h): 8.2 µM; SI (selectivity index) (SFV-Rluc [2]): >12.2; IC50 (BHK cells; [5]): > 200 µM; IC50 (SFV [3]; [7]): 15.2 µM; SFV yield (SFV [4]): 9.2×10^7 PFU/ml
OCCN1CCN(CCCN2c3ccccc3C=Cc3ccccc32)CC1 [Opipramol]	27.5%	101.5%	IC50 (SFV-Rluc [1]): 19.7 µM; IC50 (SINV; Sindbis virus, BHK, 24 h): 31 µM; SI (selectivity index) (SFV-Rluc [2]): >10.2; IC50 (BHK cells; [5]): > 200 µM; IC50 (SFV [3]; [7]): 25 µM; SFV yield (SFV [4]): 2.5×10^8 PFU/ml
CCCOC(=O)c1cc(O)c(O)c(O)c1 [Propyl gallate]			IC50 (SFV-Rluc [1]): 17.9 µM; SI (selectivity index) (SFV-Rluc [2]): 5.8; IC50 (BHK cells; [5]): 103 µM
O=C(O)c1ccc(O)c(O)c1 [Protocatechuic acid]	21.1%	105.4%	IC50 (SFV-Rluc [1]): 8 µM; IC50 (SINV; Sindbis virus, BHK, 24 h): > 200 µM; SI (selectivity index) (SFV-Rluc [2]): >25.0; IC50 (BHK cells; [5]): > 200 µM; IC50 (SFV [3]; [7]): > 200 µM; SFV yield (SFV [4]): 2.4×10^9 PFU/ml
Oc1cccc(O)c1O [Pyrogallol]	22.7%	89.2%	IC50 (SFV-Rluc [1]): 18.7 µM; IC50 (SINV; Sindbis virus, BHK, 24 h): > 200 µM; SI (selectivity index) (SFV-Rluc [2]): >10.7; IC50 (BHK cells; [5]): > 200 µM; IC50 (SFV [3]; [7]): > 200 µM; SFV yield (SFV [4]): 1.1×10^9 PFU/ml
C[C@@H]1O[C@@H](Oc2c(-c3ccc(O)c(O)c3)oc3cc(O)cc(O)c3c2=O)[C@H](O)[C@H](O)[C@H]1O [Quercitrin]			IC50 (SFV-Rluc [1]): 23.7 µM; SI (selectivity index) (SFV-Rluc [2]): >8.4; IC50 (BHK cells; [5]): > 200 µM
COc1cc(C(=O)O)cc(OC)c1O [Syringic acid]	61.1%	54.4%	
CC(C)(C)NCC(O)COc1ccc(NC(=O)NC2CCCCC2)cc1 (centres unmarked) [Talinolol]	76.9%	91.8%	
CN1C(=O)C(O)N=C(c2ccccc2)c2cc(Cl)ccc21 (centres unmarked) [Temazepam]	91.5%	79.5%	
CC(C)(C)NCC(O)c1cc(O)cc(O)c1.CC(C)(C)NCC(O)c1cc(O)cc(O)c1.O=S(=O)(O)O (centres unmarked) [Terbutaline hemisulfate salt]	97.5%	87.2%	
CCCCNc1ccc(C(=O)OCCN(C)C)cc1 [Tetracaine hydrochloride]	102.8%	71.1%	
Cn1cnc2c1c(=O)[nH]c(=O)n2C [Theobromine]	112.1%	70.2%	
Cn1c(=O)c2[nH]cnc2n(C)c1=O [Theophylline]	87.8%	100.4%	
Cc1ncc(C[n+]2csc(CCO)c2C)c(N)n1.O=[N+]([O-])[O-] [Thiamine mononitrate]	95.2%	85.0%	
Cc1ccc(C(C)C)c(O)c1 [Thymol]	42.0%	71.1%	

Compound	SFV replication % left (surviving fraction, remaining percentage of SFV replication) (SFV-Rluc [2])	CHIKV replicon % left (CHIKV replicon)	also measured
CC(C)(C)NC[C@H](O)COc1nsnc1N1CCOCC1 [Timolol maleate]	129.1%	100.6%	
CCS(=O)(=O)CCn1c([N+](=O)[O-])cnc1C [Tinidazole]	104.1%	100.5%	
Cl.c1ccc(CC2=NCCN2)cc1 [Tolazoline, hydrochloride]	76.0%	102.1%	
CCCCNC(=O)NS(=O)(=O)c1ccc(C)cc1 [Tolbutamide]	80.2%	100.9%	
Cc1c(Cl)cccc1Nc1ccccc1C(=O)O [Tolfenamic acid]	80.1%	108.2%	
N[C@@H]1C[C@H]1c1ccccc1.N[C@H]1C[C@@H]1c1ccccc1.O=S(=O)(O)O [Tranylcypromine sulfate]	94.8%	94.4%	
Nc1nc(N)c2nc(-c3ccccc3)c(N)nc2n1 [Triamterene]	93.0%	71.2%	
Cc1nnc2n1-c1ccc(Cl)cc1C(c1ccccc1Cl)=NC2 [Triazolam]	76.5%	40.1%	
CC(CN(C)C)CN1c2ccccc2Sc2ccccc21.CC(CN(C)C)CN1c2ccccc2Sc2ccccc21.O=C(O)C(O)C(O)C(=O)O (centres unmarked) [Trimeprazine tartrate]	120.4%	100.5%	
O=c1ccc2ccc(O)cc2o1 [Umbelliferone]	93.1% and 78.4%	106.5% and 100.7%	
COc1cc(C(=O)O)ccc1O [Vanillic acid]	53.4%	44.3%	
COc1cc(C=O)ccc1O [Vanillin]	47.9%	71.7%	
COc1c2occc2cc2ccc(=O)oc12 [Xanthotoxin]	86.7%	95.4%	
Cc1cc(C(C)(C)C)cc(C)c1CC1=NCCN1 [Xylometazoline]	94.2%	78.2%	
CCCOC(=O)c1cc(O)c(O)c(O)c1 [n-Propyl gallate]	33.6%	39.4%	
O=C(O)/C=C/c1ccccc1O [o-Coumaric acid]	77.6%	98.6%	
Nc1ccc(C(=O)O)cc1 [p-Aminobenzoic acid]	56.5%	105.4%	
CCCCNc1ccc(C(=O)OCCN(C)C)cc1 [p-Butylaminobenzoyldimethylaminoethanol]	45.4%	77.1%	
CN[C@H](C)[C@@H](O)c1ccc(O)cc1 [p-Hydroxyephedrine]	94.4%	100.6%	
(-)-Epicatechin gallate	94.8%	100.5%	
Benzalkonium chloride	0.0294%	-0.5%	
Saccharin sodium	105.0%	81.5%	
Tannic acid	41.8%	82.0%	
